The supplement of paper PMC11451515

Columns and labels:
Conditions in all cases: 48 h
[1] = test system: NOMO1; experiment: cell viability relative to DMSO control; higher = less cytotoxic
Method in brief: (§1)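 Cells were incubated for 48 h at 37°C before CellTiter-Glo One luminescence was read. The cells were NOMO1 or SEM (500 cells/well) or P12-Ichikawa (1000 cells/well) leukemia cells, adapted for at least four passages in each medium and seeded in 1536-well plates (5 μl). Dosing used library compounds in DMSO applied by pin over 11 threefold points, 47 μM to 0.79 nM. Viability is the per-plate percentage of DMSO wells, with cell-free wells as background.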

[2] = test system: P12-Ichikawa; experiment: as above
Method in brief: as §1

[3] = test system: SEM cells; experiment: as above
Method in brief: as §1

[4] = test system: P12-Ichikawa; experiment: AUC of viability dose-response curve (% viability x log10 dose units); higher = less sensitive
Method in brief: (§2)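 Area under the curve was integrated by trapezoidal rule from a log-logistic fit of normalised viability, with curves exceeding full viability scaled and quality-control failures removed. The fit had four parameters over log10 doses. Viability came from CellTiter-Glo One luminescence, normalised per plate to DMSO and cell-free wells, after leukemia cells adapted to each medium (500 or 1000 cells/well, 1536-well plates) were exposed to library compounds in DMSO for 48 h at 37°C. The 11 threefold doses ran from 47 μM to 0.79 nM.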

[5] = test system: SEM cells; experiment: as above
Method in brief: as §2

[6] = HPLM + 10% dialyzed FBS, 0.000781 µM
[7] = HPLM + 10% dialyzed FBS, 0.00234 µM
[8] = HPLM + 10% dialyzed FBS, 0.00702 µM
[9] = HPLM + 10% dialyzed FBS, 0.0211 µM
[10] = HPLM + 10% dialyzed FBS, 0.0632 µM
[11] = HPLM + 10% dialyzed FBS, 0.19 µM
[12] = HPLM + 10% dialyzed FBS, 0.569 µM
[13] = HPLM + 10% dialyzed FBS, 1.71 µM
[14] = HPLM + 10% dialyzed FBS, 5.12 µM
[15] = HPLM + 10% dialyzed FBS, 15.4 µM
[16] = HPLM + 10% dialyzed FBS, 46.1 µM
[17] = RPMI 5 mM glucose + 10% FBS, 0.000781 µM
[18] = RPMI 5 mM glucose + 10% FBS, 0.00234 µM
[19] = RPMI 5 mM glucose + 10% FBS, 0.00702 µM
[20] = RPMI 5 mM glucose + 10% FBS, 0.0211 µM
[21] = RPMI 5 mM glucose + 10% FBS, 0.0632 µM
[22] = RPMI 5 mM glucose + 10% FBS, 0.19 µM
[23] = RPMI 5 mM glucose + 10% FBS, 0.569 µM
[24] = RPMI 5 mM glucose + 10% FBS, 1.71 µM
[25] = RPMI 5 mM glucose + 10% FBS, 5.12 µM
[26] = RPMI 5 mM glucose + 10% FBS, 15.4 µM
[27] = RPMI 5 mM glucose + 10% FBS, 46.1 µM
[28] = RPMI 5 mM glucose + 10% dialyzed FBS, 0.000781 µM
[29] = RPMI 5 mM glucose + 10% dialyzed FBS, 0.00234 µM
[30] = RPMI 5 mM glucose + 10% dialyzed FBS, 0.00702 µM
[31] = RPMI 5 mM glucose + 10% dialyzed FBS, 0.0211 µM
[32] = RPMI 5 mM glucose + 10% dialyzed FBS, 0.0632 µM
[33] = RPMI 5 mM glucose + 10% dialyzed FBS, 0.19 µM
[34] = RPMI 5 mM glucose + 10% dialyzed FBS, 0.569 µM
[35] = RPMI 5 mM glucose + 10% dialyzed FBS, 1.71 µM
[36] = RPMI 5 mM glucose + 10% dialyzed FBS, 5.12 µM
[37] = RPMI 5 mM glucose + 10% dialyzed FBS, 15.4 µM
[38] = RPMI 5 mM glucose + 10% dialyzed FBS, 46.1 µM
[39] = RPMI 5 mM glucose + 10% dialyzed FBS

## COc1ccc(Nc2nccc(NCCO)n2)cc1
[1]; [6]
  cell viability: 75.3%
[1]; [7]
  cell viability: 86.5%
[1]; [8]
  cell viability: 84.9%
[1]; [9]
  cell viability: 97.5%
[1]; [10]
  cell viability: 86%
[1]; [11]
  cell viability: 96.7%
[1]; [12]
  cell viability: 88.8%
[1]; [13]
  cell viability: 99.5%
[1]; [14]
  cell viability: 74.5%
[1]; [15]
  cell viability: 84.9%
[1]; [16]
  cell viability: 22.7%
[1]; [17]
  cell viability: 72.7%
[1]; [18]
  cell viability: 86.4%
[1]; [19]
  cell viability: 73.6%
[1]; [20]
  cell viability: 83.5%
[1]; [21]
  cell viability: 79.6%
[1]; [22]
  cell viability: 79.8%
[1]; [23]
  cell viability: 79.6%
[1]; [24]
  cell viability: 79%
[1]; [25]
  cell viability: 15.8%
[1]; [26]
  cell viability: 81.3%
[1]; [27]
  cell viability: 91.8%
[1]; [28]
  cell viability: 61.9%
[1]; [29]
  cell viability: 63.7%
[1]; [30]
  cell viability: 69.4%
[1]; [31]
  cell viability: 73.9%
[1]; [32]
  cell viability: 73.8%
[1]; [33]
  cell viability: 76.9%
[1]; [34]
  cell viability: 68.9%
[1]; [35]
  cell viability: 75.5%
[1]; [36]
  cell viability: 23.6%
[1]; [37]
  cell viability: 76.9%
[1]; [38]
  cell viability: 76.2%
[2]; [6]
  cell viability: 73.7%
[2]; [7]
  cell viability: 83.2%
[2]; [8]
  cell viability: 82.1%
[2]; [9]
  cell viability: 84.8%
[2]; [10]
  cell viability: 88.2%
[2]; [11]
  cell viability: 85.2%
[2]; [12]
  cell viability: 81.9%
[2]; [13]
  cell viability: 81.5%
[2]; [14]
  cell viability: 76.7%
[2]; [15]
  cell viability: 89.5%
[2]; [16]
  cell viability: 80.8%
[2]; [17]
  cell viability: 72%
[2]; [18]
  cell viability: 81.3%
[2]; [19]
  cell viability: 79.4%
[2]; [20]
  cell viability: 86.8%
[2]; [21]
  cell viability: 89.8%
[2]; [22]
  cell viability: 81.5%
[2]; [23]
  cell viability: 76.8%
[2]; [24]
  cell viability: 73.6%
[2]; [25]
  cell viability: 79%
[2]; [26]
  cell viability: 85%
[2]; [27]
  cell viability: 85.3%
[2]; [28]
  cell viability: 69%
[2]; [29]
  cell viability: 76.7%
[2]; [30]
  cell viability: 78%
[2]; [31]
  cell viability: 81.5%
[2]; [32]
  cell viability: 78.9%
[2]; [33]
  cell viability: 81.7%
[2]; [34]
  cell viability: 79.9%
[2]; [35]
  cell viability: 81.9%
[2]; [36]
  cell viability: 78.4%
[2]; [37]
  cell viability: 79.9%
[2]; [38]
  cell viability: 77.9%
[3]; [6]
  cell viability: 61.7%
[3]; [7]
  cell viability: 67.9%
[3]; [8]
  cell viability: 61.4%
[3]; [9]
  cell viability: 75.8%
[3]; [10]
  cell viability: 81.4%
[3]; [11]
  cell viability: 69.6%
[3]; [12]
  cell viability: 63.7%
[3]; [13]
  cell viability: 78.6%
[3]; [14]
  cell viability: 64%
[3]; [15]
  cell viability: 75.4%
[3]; [16]
  cell viability: 64.7%
[3]; [17]
  cell viability: 75.9%
[3]; [18]
  cell viability: 80.1%
[3]; [19]
  cell viability: 78%
[3]; [20]
  cell viability: 87.4%
[3]; [21]
  cell viability: 77.1%
[3]; [22]
  cell viability: 79%
[3]; [23]
  cell viability: 78.3%
[3]; [24]
  cell viability: 85.1%
[3]; [25]
  cell viability: 42.1%
[3]; [26]
  cell viability: 91.5%
[3]; [27]
  cell viability: 92.9%
[3]; [28]
  cell viability: 64.5%
[3]; [29]
  cell viability: 65.3%
[3]; [30]
  cell viability: 73.3%
[3]; [31]
  cell viability: 95%
[3]; [32]
  cell viability: 91.8%
[3]; [33]
  cell viability: 78.6%
[3]; [34]
  cell viability: 81.4%
[3]; [35]
  cell viability: 74.7%
[3]; [36]
  cell viability: 74.1%
[3]; [37]
  cell viability: 92.5%
[3]; [38]
  cell viability: 68.2%
[4]; HPLM + 10% dialyzed FBS
  AUC of viability dose-response curve: 395
[4]; RPMI 5 mM glucose + 10% FBS
  AUC of viability dose-response curve: 386
[4]; [39]
  AUC of viability dose-response curve: 377
[5]; HPLM + 10% dialyzed FBS
  AUC of viability dose-response curve: 331
[5]; RPMI 5 mM glucose + 10% FBS
  AUC of viability dose-response curve: 376
[5]; [39]
  AUC of viability dose-response curve: 375
